How the values were obtained:
hIRAK4 = molecular target: T1, hIRAK4 (Homo sapiens, UniProt Q9NWZ3); test: KINOMEscan; format: binding
T1 construct: purchased DiscoverX (KINOMEscan panel)

hSYK = molecular target: T2, hSYK (Homo sapiens, UniProt P43405); test: KINOMEscan; format: binding
T2 construct: purchased DiscoverX (KINOMEscan platform)

hEPHB1 = molecular target: T3, hEPHB1 (Homo sapiens, UniProt P54762); test: KINOMEscan; format: binding
T3 construct: purchased DiscoverX

hYSK1 = molecular target: T4, hYSK1 (Homo sapiens, UniProt O00506); test: KINOMEscan; format: binding
T4 construct: purchased DiscoverX

hADORA3 = molecular target: T5, hADORA3 (Homo sapiens, UniProt P0DMS8); test: cAMP Agonist (Eurofins-CEREP); details: @ 10 μM
T5 sequence (P0DMS8 1-318): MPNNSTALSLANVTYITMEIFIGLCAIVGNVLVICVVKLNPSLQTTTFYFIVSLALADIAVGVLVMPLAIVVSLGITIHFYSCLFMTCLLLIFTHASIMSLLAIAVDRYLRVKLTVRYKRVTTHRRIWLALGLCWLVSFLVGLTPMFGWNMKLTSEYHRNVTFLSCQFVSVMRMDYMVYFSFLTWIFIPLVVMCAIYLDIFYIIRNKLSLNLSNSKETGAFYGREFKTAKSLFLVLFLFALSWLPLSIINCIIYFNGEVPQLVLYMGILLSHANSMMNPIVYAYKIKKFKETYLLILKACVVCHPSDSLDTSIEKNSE

hSRPK1 = molecular target: T6, hSRPK1 (Homo sapiens, UniProt Q96SB4); test: KINOMEscan; format: binding
T6 construct: purchased DiscoverX (KINOMEscan platform)
T6 sequence (Q96SB4 whole entry): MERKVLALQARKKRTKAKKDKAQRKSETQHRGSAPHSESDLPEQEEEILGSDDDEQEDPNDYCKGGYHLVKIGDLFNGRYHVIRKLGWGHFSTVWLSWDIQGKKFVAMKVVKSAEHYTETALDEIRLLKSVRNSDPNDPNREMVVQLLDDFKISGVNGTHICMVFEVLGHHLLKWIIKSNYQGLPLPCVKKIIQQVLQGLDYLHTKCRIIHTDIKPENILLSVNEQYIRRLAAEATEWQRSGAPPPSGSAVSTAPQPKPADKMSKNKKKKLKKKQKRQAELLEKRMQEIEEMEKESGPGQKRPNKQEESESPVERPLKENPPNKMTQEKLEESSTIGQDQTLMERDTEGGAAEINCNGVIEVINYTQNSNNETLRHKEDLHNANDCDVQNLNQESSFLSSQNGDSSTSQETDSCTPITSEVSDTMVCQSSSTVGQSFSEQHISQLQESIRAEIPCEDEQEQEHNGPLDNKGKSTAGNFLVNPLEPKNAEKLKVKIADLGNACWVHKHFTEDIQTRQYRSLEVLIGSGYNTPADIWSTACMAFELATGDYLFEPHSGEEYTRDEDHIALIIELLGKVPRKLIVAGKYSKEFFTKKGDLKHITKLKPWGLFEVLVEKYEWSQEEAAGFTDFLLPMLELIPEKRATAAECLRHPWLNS

hM2 = molecular target: T7, hM2 (Homo sapiens, UniProt P08172); test: β-arrestin Agonist (Eurofins-CEREP); details: @ 10 μM
T7 sequence (P08172 1-466): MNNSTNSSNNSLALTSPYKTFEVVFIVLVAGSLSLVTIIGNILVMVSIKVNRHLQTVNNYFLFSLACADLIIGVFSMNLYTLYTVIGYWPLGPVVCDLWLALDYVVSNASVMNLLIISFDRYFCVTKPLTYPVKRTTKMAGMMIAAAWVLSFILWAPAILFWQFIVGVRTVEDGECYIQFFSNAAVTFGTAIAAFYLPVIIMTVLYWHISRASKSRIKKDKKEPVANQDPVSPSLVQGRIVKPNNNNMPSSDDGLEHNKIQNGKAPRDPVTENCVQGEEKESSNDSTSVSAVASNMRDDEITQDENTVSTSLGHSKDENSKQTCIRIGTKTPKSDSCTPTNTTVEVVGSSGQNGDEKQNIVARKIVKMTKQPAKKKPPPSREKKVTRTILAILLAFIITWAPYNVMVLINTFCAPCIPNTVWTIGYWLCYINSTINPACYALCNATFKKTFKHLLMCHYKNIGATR

hM3 = hM3 (Homo sapiens, UniProt P20309); test: Calcium Mobilization Potentiation (Eurofins-CEREP); details: @ 10 μM
hMELK = molecular target: T8, hMELK (Homo sapiens, UniProt Q14680); test: KINOMEscan; format: binding
T8 construct: purchased DiscoverX

hHIPK3 = molecular target: T9, hHIPK3 (Homo sapiens, UniProt Q9H422); test: KINOMEscan; format: binding
T9 construct: purchased DiscoverX

hJNK1 = molecular target: T10, hJNK1 (Homo sapiens, UniProt P45983); test: KINOMEscan; format: binding
T10 construct: purchased DiscoverX (KINOMEscan panel)

hCSNK1A1L = molecular target: T11, hCSNK1A1L (Homo sapiens, UniProt Q8N752); test: KINOMEscan; format: binding
T11 construct: purchased DiscoverX (KINOMEscan platform)

hSTK33 = molecular target: T12, hSTK33 (Homo sapiens, UniProt Q9BYT3); test: KINOMEscan; format: binding
T12 construct: purchased DiscoverX (KINOMEscan platform)
T12 sequence (Q9BYT3 whole entry): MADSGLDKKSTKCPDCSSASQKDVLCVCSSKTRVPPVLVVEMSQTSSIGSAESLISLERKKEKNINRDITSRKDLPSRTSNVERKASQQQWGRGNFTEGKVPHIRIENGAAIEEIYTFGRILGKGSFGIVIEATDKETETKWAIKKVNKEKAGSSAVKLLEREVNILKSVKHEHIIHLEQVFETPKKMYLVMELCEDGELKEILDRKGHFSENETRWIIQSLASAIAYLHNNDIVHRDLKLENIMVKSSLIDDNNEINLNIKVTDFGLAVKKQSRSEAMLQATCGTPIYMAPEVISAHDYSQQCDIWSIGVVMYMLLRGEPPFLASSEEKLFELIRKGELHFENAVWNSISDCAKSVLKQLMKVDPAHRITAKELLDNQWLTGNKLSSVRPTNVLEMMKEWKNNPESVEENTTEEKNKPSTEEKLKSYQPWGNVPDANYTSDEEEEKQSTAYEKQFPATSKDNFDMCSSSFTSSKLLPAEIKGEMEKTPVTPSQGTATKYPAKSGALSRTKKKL

hRET(V804M) = molecular target: T13, hRET(V804M) (Homo sapiens, UniProt P07949, V804M); test: KINOMEscan; format: binding
T13 construct: purchased DiscoverX (KINOMEscan platform)

hLCK = molecular target: T14, hLCK (Homo sapiens, UniProt P06239); test: KINOMEscan; format: binding
T14 construct: purchased DiscoverX (KINOMEscan platform)

hMAP4K2 = molecular target: T15, hMAP4K2 (Homo sapiens, UniProt Q12851); test: KINOMEscan; format: binding
T15 construct: purchased DiscoverX (KINOMEscan platform)
T15 sequence (Q12851 whole entry): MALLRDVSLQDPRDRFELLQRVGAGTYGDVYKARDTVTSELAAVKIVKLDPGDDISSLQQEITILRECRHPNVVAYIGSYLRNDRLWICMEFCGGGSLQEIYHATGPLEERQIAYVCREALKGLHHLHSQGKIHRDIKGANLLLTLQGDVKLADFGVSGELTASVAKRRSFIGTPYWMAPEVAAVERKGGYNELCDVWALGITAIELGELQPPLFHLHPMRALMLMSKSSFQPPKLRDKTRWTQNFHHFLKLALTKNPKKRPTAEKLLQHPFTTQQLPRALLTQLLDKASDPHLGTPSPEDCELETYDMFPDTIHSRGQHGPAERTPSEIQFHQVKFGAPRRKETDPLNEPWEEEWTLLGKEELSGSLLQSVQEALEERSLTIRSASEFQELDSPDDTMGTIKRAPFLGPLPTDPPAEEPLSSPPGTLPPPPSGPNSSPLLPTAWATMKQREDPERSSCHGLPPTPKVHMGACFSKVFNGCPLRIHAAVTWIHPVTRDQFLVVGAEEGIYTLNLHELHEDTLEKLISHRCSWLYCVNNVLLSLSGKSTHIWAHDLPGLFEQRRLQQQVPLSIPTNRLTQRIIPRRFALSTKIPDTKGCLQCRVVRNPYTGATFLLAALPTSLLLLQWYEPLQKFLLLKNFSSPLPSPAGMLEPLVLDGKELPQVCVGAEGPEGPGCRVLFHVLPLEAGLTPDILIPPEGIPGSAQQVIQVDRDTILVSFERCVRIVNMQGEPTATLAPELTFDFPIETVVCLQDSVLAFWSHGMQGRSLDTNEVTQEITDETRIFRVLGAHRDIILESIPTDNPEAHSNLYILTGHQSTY

hFLT3(N841I) = molecular target: T16, hFLT3(N841I) (Homo sapiens, UniProt P36888, N841I); test: KINOMEscan; format: binding
T16 construct: purchased DiscoverX

hCLK1 = molecular target: T17, hCLK1 (Homo sapiens, UniProt P49759); test: KINOMEscan; format: binding
T17 construct: purchased DiscoverX

hSTK16 = molecular target: T18, hSTK16 (Homo sapiens, UniProt O75716); test: KINOMEscan; format: binding
T18 construct: purchased DiscoverX (KINOMEscan platform)

hJAK2(JH1Dom.-catalytic) = molecular target: T19, hJAK2(JH1Dom.-catalytic) (Homo sapiens, UniProt O60674); test: KINOMEscan; format: binding
T19 construct: hJAK2(JH1Dom.-catalytic); purchased DiscoverX (KINOMEscan panel)

hRIPK4 = molecular target: T20, hRIPK4 (Homo sapiens, UniProt P57078); test: KINOMEscan; format: binding
T20 construct: purchased DiscoverX (KINOMEscan platform)

hCIT = molecular target: T21, hCIT (Homo sapiens, UniProt O14578); test: KINOMEscan; format: binding
T21 construct: purchased DiscoverX

hEPHA4 = molecular target: T22, hEPHA4 (Homo sapiens, UniProt P54764); test: KINOMEscan; format: binding
T22 construct: purchased DiscoverX
T22 sequence (P54764 20-986): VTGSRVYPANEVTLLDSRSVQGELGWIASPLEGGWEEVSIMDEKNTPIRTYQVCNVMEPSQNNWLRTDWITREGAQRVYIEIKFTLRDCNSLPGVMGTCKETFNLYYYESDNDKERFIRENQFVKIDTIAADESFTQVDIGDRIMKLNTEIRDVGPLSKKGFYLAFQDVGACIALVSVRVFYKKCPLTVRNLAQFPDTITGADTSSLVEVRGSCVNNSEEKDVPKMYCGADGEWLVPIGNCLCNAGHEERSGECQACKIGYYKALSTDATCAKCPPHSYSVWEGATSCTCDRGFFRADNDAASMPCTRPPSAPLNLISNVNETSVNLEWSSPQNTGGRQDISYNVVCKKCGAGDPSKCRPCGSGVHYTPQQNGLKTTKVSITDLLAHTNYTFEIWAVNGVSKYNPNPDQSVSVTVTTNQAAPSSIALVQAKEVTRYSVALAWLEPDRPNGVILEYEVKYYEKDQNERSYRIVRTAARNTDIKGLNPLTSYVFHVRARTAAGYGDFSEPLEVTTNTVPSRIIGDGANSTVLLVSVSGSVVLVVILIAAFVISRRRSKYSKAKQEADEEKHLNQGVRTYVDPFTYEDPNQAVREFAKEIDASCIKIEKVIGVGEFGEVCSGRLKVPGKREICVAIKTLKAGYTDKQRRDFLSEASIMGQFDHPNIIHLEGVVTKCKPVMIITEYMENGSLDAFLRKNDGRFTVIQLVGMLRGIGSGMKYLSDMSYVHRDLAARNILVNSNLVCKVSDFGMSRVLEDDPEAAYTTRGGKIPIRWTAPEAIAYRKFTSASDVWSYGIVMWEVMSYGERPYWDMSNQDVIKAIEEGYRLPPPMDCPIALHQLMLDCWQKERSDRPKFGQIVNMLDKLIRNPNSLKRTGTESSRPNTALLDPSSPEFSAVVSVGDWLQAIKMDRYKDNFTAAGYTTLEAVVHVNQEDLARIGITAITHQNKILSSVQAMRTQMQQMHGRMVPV

hDAPK2 = molecular target: T23, hDAPK2 (Homo sapiens, UniProt Q9UIK4); test: KINOMEscan; format: binding
T23 construct: purchased DiscoverX (KINOMEscan platform)
T23 sequence (Q9UIK4 whole entry): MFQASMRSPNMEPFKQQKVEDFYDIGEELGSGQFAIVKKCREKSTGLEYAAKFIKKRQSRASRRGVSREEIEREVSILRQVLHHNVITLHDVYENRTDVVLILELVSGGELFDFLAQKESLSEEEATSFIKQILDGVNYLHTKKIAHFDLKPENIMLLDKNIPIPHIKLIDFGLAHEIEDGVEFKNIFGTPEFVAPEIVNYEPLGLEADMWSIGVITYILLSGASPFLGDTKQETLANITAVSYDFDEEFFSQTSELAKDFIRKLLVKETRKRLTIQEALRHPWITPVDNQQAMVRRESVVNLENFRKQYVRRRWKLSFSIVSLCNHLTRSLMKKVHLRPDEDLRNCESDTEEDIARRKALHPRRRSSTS

hFGFR3 = molecular target: T24, hFGFR3 (Homo sapiens, UniProt P22607); test: KINOMEscan; format: binding
T24 construct: purchased DiscoverX

hDYRK1A = molecular target: T25, hDYRK1A (Homo sapiens, UniProt Q13627); test: KINOMEscan; format: binding
T25 construct: purchased DiscoverX

hAKT1 = molecular target: T26, hAKT1 (Homo sapiens, UniProt P31749); test: KINOMEscan; format: binding
T26 construct: purchased DiscoverX
T26 sequence (P31749 whole entry): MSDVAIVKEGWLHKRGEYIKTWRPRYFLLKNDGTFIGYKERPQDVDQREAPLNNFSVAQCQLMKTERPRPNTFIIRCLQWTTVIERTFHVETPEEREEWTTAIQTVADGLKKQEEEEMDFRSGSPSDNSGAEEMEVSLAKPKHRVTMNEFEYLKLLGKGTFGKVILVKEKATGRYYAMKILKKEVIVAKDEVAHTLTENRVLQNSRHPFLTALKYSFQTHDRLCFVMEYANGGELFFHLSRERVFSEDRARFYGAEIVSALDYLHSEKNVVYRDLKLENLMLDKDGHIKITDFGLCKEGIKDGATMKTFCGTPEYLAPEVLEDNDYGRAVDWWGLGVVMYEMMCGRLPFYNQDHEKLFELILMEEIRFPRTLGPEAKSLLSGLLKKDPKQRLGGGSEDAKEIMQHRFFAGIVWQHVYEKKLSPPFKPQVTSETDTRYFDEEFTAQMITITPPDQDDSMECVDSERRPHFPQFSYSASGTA

CYP2D6 = molecular target: T27, CYP2D6 (Homo sapiens, UniProt P10635); test: Cytochrome p450 inhibition (Eurofins-CEREP); format: in vitro ADME
T27 construct: Eurofins-CEREP
T27 sequence (P10635 whole entry, species assumed): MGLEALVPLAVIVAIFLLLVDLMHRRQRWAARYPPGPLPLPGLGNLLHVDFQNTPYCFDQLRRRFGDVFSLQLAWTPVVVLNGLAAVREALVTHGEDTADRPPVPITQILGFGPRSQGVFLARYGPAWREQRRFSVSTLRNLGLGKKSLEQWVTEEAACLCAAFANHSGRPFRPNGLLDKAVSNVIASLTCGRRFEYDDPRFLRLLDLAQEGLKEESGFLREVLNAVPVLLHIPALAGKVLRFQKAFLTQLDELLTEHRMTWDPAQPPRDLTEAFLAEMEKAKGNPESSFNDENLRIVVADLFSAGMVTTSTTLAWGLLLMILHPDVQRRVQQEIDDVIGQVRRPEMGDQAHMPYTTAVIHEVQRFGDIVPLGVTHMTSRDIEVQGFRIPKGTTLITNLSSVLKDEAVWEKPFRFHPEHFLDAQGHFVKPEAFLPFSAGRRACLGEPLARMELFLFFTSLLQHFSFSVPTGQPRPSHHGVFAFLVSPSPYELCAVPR

T1 sequence (Q9NWZ3 whole entry): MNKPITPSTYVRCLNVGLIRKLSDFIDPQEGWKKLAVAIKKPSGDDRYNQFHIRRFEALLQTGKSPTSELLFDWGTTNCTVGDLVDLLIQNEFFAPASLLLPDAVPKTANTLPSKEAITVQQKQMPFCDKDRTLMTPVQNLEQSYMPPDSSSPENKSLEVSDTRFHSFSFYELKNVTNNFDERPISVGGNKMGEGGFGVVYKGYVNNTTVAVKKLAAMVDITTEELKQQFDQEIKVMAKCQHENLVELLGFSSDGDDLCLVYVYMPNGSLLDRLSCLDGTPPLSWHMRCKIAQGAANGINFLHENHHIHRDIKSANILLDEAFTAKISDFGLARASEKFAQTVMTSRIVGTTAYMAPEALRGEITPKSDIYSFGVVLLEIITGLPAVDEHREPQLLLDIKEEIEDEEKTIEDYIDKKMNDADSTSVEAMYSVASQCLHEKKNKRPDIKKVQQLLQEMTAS

In the case of Cc1cn(CCN2CCN(c3ccccc3-c3cc(C#N)cc(C(=O)NCCCN4CCCC4)c3)CC2)c2ccccc12 [LLY-507, 3-cyano-5-{2-[4-[2-(3-methylindol-1-yl)ethyl]piperazin-1-yl]-phenyl}-N-[(3-pyrrolidin-1-yl)propyl]benzamide], the IC50 (hIRAK4) is reported as greater than 20 µM, the IC50 (hSYK) is reported as greater than 20 µM and the IC50 (hEPHB1) is reported as greater than 20 µM. The IC50 (hYSK1) was greater than 20 µM, the “% Effect, Stimulation” value (hADORA3) was 2.6% and the IC50 (hSRPK1) was greater than 20 µM. The “% Effect, Stimulation” value (hM2) was 5.1%, the “% Effect, Potentiation” value (hM3) was -18% and the IC50 (hMELK) was greater than 20 µM. The IC50 (hHIPK3) was greater than 20 µM, the IC50 (hJNK1) was greater than 20 µM and the IC50 (hCSNK1A1L) was greater than 20 µM. For the same compound, the IC50 (hSTK33) was greater than 20 µM, the IC50 (hRET(V804M)) was greater than 20 µM and the IC50 (hLCK) was greater than 20 µM. For the same compound, the IC50 (hMAP4K2) was greater than 20 µM, the IC50 (hFLT3(N841I)) was greater than 20 µM and the IC50 (hCLK1) was greater than 20 µM. It also gave an IC50 (hSTK16) greater than 20 µM, an IC50 (hJAK2(JH1Dom.-catalytic)) greater than 20 µM and an IC50 (hRIPK4) greater than 20 µM. For the same compound, the IC50 (hCIT) was greater than 20 µM, the IC50 (hEPHA4) was greater than 20 µM and the IC50 (hDAPK2) was greater than 20 µM. The IC50 (hFGFR3) was greater than 20 µM, the IC50 (hDYRK1A) was greater than 20 µM and the IC50 (hAKT1) was greater than 20 µM. The “% inhibition @ 10 μM” value (CYP2D6) was 61.2%.

Reference: PMC4447944 (The Journal of Biological Chemistry, 2015)
